# Like-named read-outs stand apart in the source and are kept apart here.
# What was measured:
# MDR E. coli ST131 = assay: Screening of peptidomimetic-antibiotic combinations (growth / growth inhibition); format: cell-based, Escherichia coli; design: key to Growth in combination with RIF / Growth in combination with AZM: Growth (+); growth inhibition (–)
# K. pneumoniae ST258 [1] = assay: as above; format: cell-based, Klebsiella pneumoniae; design: key to Growth in combination with RIF / Growth in combination with AZM: Growth (+); growth inhibition (–)
# [2] = MTS/PMS cell viability assay; format: cell-based, mouse; conditions: mouse, NIH 3T3 fibroblasts, 1 h exposure, read-out: Cytotoxicity NIH 3T3 EC50 ± SD
# Method in brief: (§1)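 NIH 3T3 and HepG2 cells at 80–90% confluence exposed 1 h to compound in serum-free medium, then MTS/PMS added for 1 h at 37 °C; absorbance read at 492 nm. Viability normalized to medium (0% death) and 0.2% SDS (100% death); EC50 from Hill fit constrained 0–100%, technical triplicates.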
# NIH 3T3 cells = assay: MTS/PMS cell viability assay; format: cell-based, mouse; conditions: 1 h exposure, read-out: Cytotoxicity NIH 3T3 EC50 ± SD
# Method in brief: as §1
# [3] = MTS/PMS cell viability assay; format: cell-based; conditions: human, HepG2 hepatocytes, 1 h exposure, read-out: Cytotoxicity HepG2 EC50 ± SD
# Method in brief: as §1
# E. coli ST131 [4] = assay: MIC by broth microdilution; format: cell-based, Escherichia coli
# Method in brief: (§2)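 Broth microdilution per CLSI; combos at fixed peptidomimetic:antibiotic ratios (2:1 rifampicin, 1:4 azithromycin) chosen from checkerboards. Potentiation panels: standard antibiotic dilution plates plus peptidomimetic added immediately pre-inoculation; MIC read as usual.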
# K. pneumoniae ST258 [5] = assay: MIC by broth microdilution; format: cell-based, Klebsiella pneumoniae
# Method in brief: as §2
# P. aeruginosa ATCC 27853 [6] = assay: MIC by broth microdilution; format: cell-based, Pseudomonas aeruginosa
# Method in brief: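 MICs were determined by CLSI broth microdilution. Combinations used fixed peptidomimetic:antibiotic ratios of 2:1 with rifampicin and 1:4 with azithromycin, and potentiation of other antibiotics was tested on COMPAN1F panels. MBCs came from OD600 growth curves over 24 h at 37°C, followed by plating of wells without growth onto MHA.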
# E. coli ST131 [7] = test system: E. coli ST131
# Method in brief: (§3)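 Two-dimensional checkerboard broth microdilution in MHB II, with twofold dilutions of peptidomimetic and antibiotic on crossed axes and 18–20 h incubation per CLSI. FICI = MICA(A+B)/MICA(alone) + MICB(A+B)/MICB(alone); ≤0.5 is interpreted as synergy.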
# K. pneumoniae ST258 [8] = test system: K. pneumoniae ST258
# Method in brief: as §3
# P. aeruginosa ATCC 27853 [9] = test system: P. aeruginosa ATCC 27853
# Method in brief: as §3
# NIH 3T3 and HepG2 cells = assay: Effect on viability of mammalian cells (both cell lines); format: cell-based, mouse and human
# Procedure: NIH 3T3 and HepG2 cells (both from ATCC, Manassas, VA, USA) were cultured in flat-bottomed 96-well MicroWell™ plates (NUNC, Roskilde, Denmark) at seeding densities of ~23,000 and ~22,000 cells/well, respectively, and then cultured for 22–24 h under standard culturing conditions (37°C, 5% CO2, humidified air) to reach 80–90% confluence. NIH 3T3 were cultured in Dulbecco's modified Eagle's medium (DMEM) supplemented with 10% (v/v) newborn-calf serum (NCS) (Gibco, Paisly, UK), while HepG2 were cultured in Eagle's minimum essential medium (EMEM) supplemented with 10% (v/v) fetal bovine serum (FBS, Gibco, Paisly, UK), sodium pyruvate (1 mM), and non-essential amino acids (1%, v/v). Both culturing media were further supplemented with penicillin (100 U/mL), streptomycin (100 μg/mL), and L-glutamine (2 mM).
# Effect on cell viability was determined in NIH 3T3 fibroblasts and HepG2 hepatocytes by using the MTS/PMS assay measuring metabolic activity. Briefly, the adhered cells were washed with 37°C Hanks' balanced salt solution (HBSS from Sigma-Aldrich, St. Louis, MO, USA), containing 10 mM HEPES (AppliChem, Darmstadt, Germany), and adjusted to pH 7.4, and were then exposed for 1 h to 100 μL of test compound(s) dissolved in the appropriate culturing medium without serum for each cell line. After exposure the cells were washed with HBSS containing 10 mM HEPES (pH 7.4) and 100 μL of an MTS/PMS solution, consisting of 240 μg/mL MTS (Promega, Madison, WI, USA) and 2.4 μg/mL PMS (SigmaAldrich, Buchs, Switzerland) in HBSS, was added to the cells, which then were incubated for 1 h at 37°C with horizontal shaking under light protection. Absorbance was measured at 492 nm by using a POLARstar OPTIMA plate reader (BMG Labtech, Offenburg, Germany). The relative viability was calculated according to Equation (1) with absorbance values obtained after incubation of cells with test compound; incubation with SDS (0.2%, w/v in medium) defined 100% cell death (Abspos), while the absorbance of cells incubated with medium defined 0% cell death (Absneg).
# (1) Relative viability(%)=(Abssample-Abspos)/(Absneg-Abspos)×100%
# EC50 values were calculated by using GraphPad Prism 7 (GraphPad Software, La Jolla, CA, USA) via fitting of the relative cell viability to the concentration of the test compound by using Equation (2):
# (2) Relative viability(%)= Top-Bottom/1+10^(LogIC50-Log[peptidomimetic]) ×Hill slope
# With top and bottom representing the mean highest and lowest observed values, respectively. The Hill slope represents a factor for the steepness of the linear part of the curve. […] The selectivity index was calculated as the average effect on cell viability (EC50 values for HepG2 and NIH 3T3 cells) divided by the MIC.
# [10] = peptidomimetic 0.5 μM + azithromycin 1 μg/mL
# [11] = peptidomimetic 0.5 μM + rifampicin 0.5 μg/mL
# [12] = average of EC50 (HepG2, NIH 3T3) divided by MIC
# [13] = MIC of azithromycin combined with the labelled peptidomimetic
# [14] = MIC of rifampicin combined with the labelled peptidomimetic
structure (smiles),measurement,setting,value
"COCCOCCOCC(=O)N[C@@H](CCCCN)C(=O)N(CCC(=O)N[C@@H](CCCCNC(=N)N)C(=O)N(CCC(=O)N[C@@H](CCCCN)C(=O)N(CCC(=O)N[C@@H](CCCCNC(=N)N)C(=O)N(CCC(=O)N[C@@H](CCCCN)C(=O)N(CCC(=O)N[C@@H](CCCCNC(=N)N)C(=O)N(CCC(N)=O)[C@@H](C)c1ccccc1)[C@@H](C)c1ccccc1)[C@@H](C)c1ccccc1)[C@@H](C)c1ccccc1)[C@@H](C)c1ccccc1)[C@@H](C)c1ccccc1 [Peptidomimetic 28, TODA-(Lys-βNspe-hArg-βNspe)3-NH2]",Growth in combination with AZM,MDR E. coli ST131; [10],–
same,Growth in combination with RIF,MDR E. coli ST131; [11],–
same,Growth in combination with AZM,K. pneumoniae ST258 [1]; [10],+
same,Growth in combination with RIF,K. pneumoniae ST258 [1]; [11],+
same,EC50 at 1 h,[2],~218 µM
same,EC50,NIH 3T3 cells,218 ± 18.1 µM
same,EC50 at 1 h,[3],118 ± 2.05 µM
same,Selectivity Index (SI) E. coli ST131,E. coli ST131 [4]; [12],(84)
same,MIC E. coli ST131,E. coli ST131 [4]; peptidomimetic alone,2 µM
same,Selectivity Index (SI) K. pneumoniae ST258,K. pneumoniae ST258 [5]; [12],(10)
same,MIC K. pneumoniae ST258,K. pneumoniae ST258 [5]; peptidomimetic alone,16 µM
same,Selectivity Index (SI) P. aeruginosa ATCC 27853,P. aeruginosa ATCC 27853 [6]; [12],(10)
same,MIC P. aeruginosa ATCC 27853,P. aeruginosa ATCC 27853 [6]; peptidomimetic alone,16 µM
same,Antibiotic MIC in combination (AZM),E. coli ST131 [7]; [13],0.5 µg/mL
same,Antibiotic MIC in combination (RIF),E. coli ST131 [7]; [14],0.13 µg/mL
same,Peptidomimetic MIC alone,E. coli ST131 [7]; checkerboard,2 µM
same,Peptidomimetic MIC in combination,E. coli ST131 [7]; combined with AZM,0.5 µM
same,Peptidomimetic MIC in combination,E. coli ST131 [7]; combined with RIF,0.5 µM
same,Antibiotic MIC in combination (AZM),K. pneumoniae ST258 [8]; [13],4 µg/mL
same,Antibiotic MIC in combination (RIF),K. pneumoniae ST258 [8]; [14],0.5 µg/mL
same,Peptidomimetic MIC alone,K. pneumoniae ST258 [8]; checkerboard,16 µM
same,Peptidomimetic MIC in combination,K. pneumoniae ST258 [8]; combined with AZM,2 µM
same,Peptidomimetic MIC in combination,K. pneumoniae ST258 [8]; combined with RIF,1 µM
same,Antibiotic MIC in combination (AZM),"P. aeruginosa ATCC 27853 [9]; P. aeruginosa ATCC 27853, MIC of azithromycin combined with the labelled peptidomimetic",0.5 µg/mL
same,Antibiotic MIC in combination (RIF),"P. aeruginosa ATCC 27853 [9]; P. aeruginosa ATCC 27853, MIC of rifampicin combined with the labelled peptidomimetic",0.06 µg/mL
same,Peptidomimetic MIC alone,"P. aeruginosa ATCC 27853 [9]; P. aeruginosa ATCC 27853, checkerboard",16 µM
same,Peptidomimetic MIC in combination,"P. aeruginosa ATCC 27853 [9]; P. aeruginosa ATCC 27853, combined with AZM",2 µM
same,Peptidomimetic MIC in combination,"P. aeruginosa ATCC 27853 [9]; P. aeruginosa ATCC 27853, combined with RIF",4 µM
same,Reduction of the MIC of azithromycin,"P. aeruginosa ATCC 27853 [9]; P. aeruginosa, sub-MIC concentrations of peptidomimetic",32- to 512 fold
same,EC50,NIH 3T3 and HepG2 cells,> 100 µM

# From article PMC6615261, “Repurposing Azithromycin and Rifampicin Against Gram-Negative Pathogens by Combination With Peptidomimetics” (Frontiers in Cellular and Infection Microbiology, 2019)
